Results: patent US20080009534A1, “S[…] DERIVATIVES USEFUL AS AN[…] A[…] AND METHOD” (Bristol-Myers Squibb Company, priority 2006, published 2008)

Columns and labels:
[1] = molecular target: T1, human PPARα receptor (Homo sapiens, UniProt Q07869); assay: In vitro PPAR agonist functional assay, GAL4-hPPARα-LBD transactivation in HEK293 cells (luciferase); type: cell-based; conditions: for EC50: GAL4-hPPARα-LBD in HEK293 cells, half-maximal fold induction; for Emax at 1 µM: HEK293, activity at 1 μM relative to GW2331 at 1 μM, read-out: PPARα % efficacy (intrinsic activity)
T1 construct: transiently transfecting GAL4-hPPARα-LBD or GAL4-hPPARγ-LBD constructs; expressed in transfected cells; host or cells: HEK293 cells stably expressing 5×GAL4RE-Luciferase
T1 sequence (Q07869 239-466 limits assumed): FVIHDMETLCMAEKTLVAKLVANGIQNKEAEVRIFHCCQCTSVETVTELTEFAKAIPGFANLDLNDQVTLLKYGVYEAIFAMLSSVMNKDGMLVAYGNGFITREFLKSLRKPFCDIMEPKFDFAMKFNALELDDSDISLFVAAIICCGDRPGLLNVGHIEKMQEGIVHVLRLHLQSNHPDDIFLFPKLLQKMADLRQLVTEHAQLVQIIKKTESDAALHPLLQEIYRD
Procedure: (§1) In vitro PPAR agonist functional assays were performed by transiently transfecting GAL4-hPPARα-LBD or GAL4-hPPARγ-LBD constructs respectively into HEK293 (human embryonic kidney) cells stably expressing 5×GAL4RE-Luciferase. Data were normalized for efficacy at 1 μM to known agonists (BRL-49653 for hPPARγ and GW-233 1 for hPPARα). Agonist binding results in an increase in luciferase enzyme activity which can be monitored by measuring luminescence upon cell lysing and the addition of luciferin substrate. EC50 values (μM) for PPARα or γ agonist activity were calculated as the concentration of the test ligand (μM) required for the half-maximal fold induction of HEK293 cells. The “intrinsic activity” of a test ligand is defined as its activity at 1 μM (expressed as a percentage) relative to the activity of the primary standards (GW2331 for PPARα and BRL-49653/rosiglitazone for PPARγ respectively, both tested at 1 μM). […] The ratios of the PPARα:PPARγ EC50 values of compounds of formula I are between 1:2 and 2:1 in this functional assay.

[2] = tested on: db/db mice; assay: db/db mouse model, plasma glucose and triglycerides after 14 days of oral dosing; type: in vivo; conditions: female db/db mice, 10 mg/kg orally once daily for 14 days, fasted plasma on day 15
Procedure: 8 week old female db/db mice were dosed orally once daily for 14 days at 10 mg/kg with the Example 1a-1c compounds using a vehicle comprised of 5% 1-methyl-pyrrolidinone, 20% polyethylene glycol (PEG400) and 75% 20 mM dibasic sodium phosphate. Plasma samples were obtained from mice fasted overnight (18 hours after last administration of compound) on day 15. The plasma glucose and triglycerides levels were determined and the percentage reductions in both parameters of drug-treated animal relative to vehicle-treated animals are shown in the table below.
It is known by one skilled in the art that the compounds of the present invention normalize plasma glucose levels and decrease plasma triglycerides at doses ≧10 mg/kg in rodent models of type 2 diabetes (e.g. the db/db mouse). The typical administration of said compounds is expected to be between 0.1 to 2,000 mg/day in the clinical setting, and is preferably between 0.5 to 100 mg/day. (Reference for db/db mouse as an in vivo rodent model for antidiabetic efficacy: T. Harrity et al, Diabetes, 2006, 55, 240-248).

[3] = molecular target: T2, human PPARγ receptor (Homo sapiens, UniProt P37231); assay: In vitro PPAR agonist functional assay, GAL4-hPPARγ-LBD transactivation in HEK293 cells (luciferase); type: cell-based; conditions: for EC50: GAL4-hPPARγ-LBD in HEK293 cells, half-maximal fold induction; for Emax at 1 µM: HEK293, activity at 1 μM relative to BRL-49653/rosiglitazone at 1 μM, read-out: PPARγ % efficacy (intrinsic activity)
T2 construct: transiently transfecting GAL4-hPPARα-LBD or GAL4-hPPARγ-LBD constructs; expressed in transfected cells; host or cells: HEK293 cells stably expressing 5×GAL4RE-Luciferase
T2 sequence (P37231 238-503 limits assumed): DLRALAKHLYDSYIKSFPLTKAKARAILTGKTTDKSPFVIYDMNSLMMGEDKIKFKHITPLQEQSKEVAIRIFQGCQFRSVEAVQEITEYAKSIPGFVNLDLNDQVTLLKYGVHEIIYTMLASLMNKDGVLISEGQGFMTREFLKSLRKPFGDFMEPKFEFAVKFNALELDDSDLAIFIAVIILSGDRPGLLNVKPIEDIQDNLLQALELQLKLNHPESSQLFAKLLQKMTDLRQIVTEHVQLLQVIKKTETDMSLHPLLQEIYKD
Procedure: as §1

| SMILES | EC50 [1] | Emax at 1 µM [1] | % Reduction in Plasma Glucose vs Vehicle-control group [2] | % Reduction in Plasma Triglycerides vs Vehicle-control group [2] | EC50 [3] | Emax at 1 µM [3] | melting point |
| --- | --- | --- | --- | --- | --- | --- | --- |
| Cc1cc(OC(=O)N(CC(=O)O)[C@@H](C)c2ccc(OCc3nc(-c4ccccc4)oc3C)cc2)ccc1F [Compound 1b] | 8 ± 2 nM | 95% | −34% | −50% | 4 ± 2 nM | 126% |  |
| COc1cccc(OC(=O)N(CC(=O)O)[C@@H](C)c2ccc(OCc3nc(-c4ccc(C)cc4)oc3C)cc2)c1 [Compound 1c] | 6 ± 2 nM | 82% | −34% | −61% | 5 ± 2 nM | 124% |  |
| Cc1ccc(OC(=O)N(CC(=O)O)[C@@H](C)c2ccc(OCc3nc(-c4ccccc4)oc3C)cc2)cc1F [Compound 1a] | 6 ± 1 nM | 92% | −45% | −45% | 3 ± 1 nM | 128% | 152.6 °C |
